Source: ChEMBL document CHEMBL3352157, “1,2,4-triazolo[1,5-a]quinoxaline derivatives and their simplified analogues as adenosine A₃ receptor antagonists. Synthesis, structure-affinity relationships and molecular modeling studies” (Bioorg Med Chem, 2015)
The source made the active and inactive calls. The calls are words filed in the database; no cut-off is given here.

What was measured:
[1] = target: T1, Adenosine receptor A3 (Homo sapiens) (UniProt P0DMS8); experiment: Displacement of [125I]AB-MECA from human adenosine A3 receptor expressed in CHO cells at 1 uM; type: cell-based
T1 sequence (whole entry): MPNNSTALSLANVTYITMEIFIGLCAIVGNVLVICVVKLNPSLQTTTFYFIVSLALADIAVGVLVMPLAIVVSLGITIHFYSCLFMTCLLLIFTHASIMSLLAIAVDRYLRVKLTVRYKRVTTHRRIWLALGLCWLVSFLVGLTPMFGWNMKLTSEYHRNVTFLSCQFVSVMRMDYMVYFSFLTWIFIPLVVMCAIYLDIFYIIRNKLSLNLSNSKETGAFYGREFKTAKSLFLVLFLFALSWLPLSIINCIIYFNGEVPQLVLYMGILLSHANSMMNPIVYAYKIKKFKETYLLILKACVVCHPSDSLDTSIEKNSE

Adenosine receptor A1 = target: T2, Adenosine receptor A1 (Homo sapiens, UniProt P30542); experiment: Displacement of [3H]DPCPX from human adenosine A1 receptor expressed in CHO cells; type: cell-based
T2 sequence (P30542 whole entry): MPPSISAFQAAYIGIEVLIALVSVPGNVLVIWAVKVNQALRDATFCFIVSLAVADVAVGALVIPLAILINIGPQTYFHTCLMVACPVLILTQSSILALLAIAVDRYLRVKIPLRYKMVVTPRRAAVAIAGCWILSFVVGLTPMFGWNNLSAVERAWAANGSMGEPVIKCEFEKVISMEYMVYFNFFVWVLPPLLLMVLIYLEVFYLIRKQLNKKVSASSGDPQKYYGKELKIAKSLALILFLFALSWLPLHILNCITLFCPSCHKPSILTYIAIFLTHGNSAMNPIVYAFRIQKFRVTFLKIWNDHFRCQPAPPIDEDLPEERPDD

Adenosine receptor A2a [2] = target: T3, Adenosine receptor A2a (Homo sapiens, UniProt P29274); experiment: Displacement of [3H]NECA from human adenosine A2A receptor expressed in CHO cells at 10 uM; type: cell-based
T3 sequence (P29274 whole entry): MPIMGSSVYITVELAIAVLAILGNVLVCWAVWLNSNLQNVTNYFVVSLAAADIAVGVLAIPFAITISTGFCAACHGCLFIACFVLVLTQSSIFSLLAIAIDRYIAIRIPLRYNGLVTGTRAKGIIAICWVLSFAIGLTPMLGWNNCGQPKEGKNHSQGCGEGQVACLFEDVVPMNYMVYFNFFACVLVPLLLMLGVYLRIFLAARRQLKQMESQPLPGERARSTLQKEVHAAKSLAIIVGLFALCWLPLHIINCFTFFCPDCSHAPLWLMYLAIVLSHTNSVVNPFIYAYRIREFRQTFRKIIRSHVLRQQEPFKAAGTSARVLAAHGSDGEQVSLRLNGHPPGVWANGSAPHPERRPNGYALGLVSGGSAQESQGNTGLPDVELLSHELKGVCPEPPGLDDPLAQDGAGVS

Adenosine receptor A3 = target: T4, Adenosine receptor A3 (Homo sapiens, UniProt P0DMS8); experiment: Displacement of [125I]AB-MECA from human adenosine A3 receptor expressed in CHO cells; type: cell-based
T4 sequence (P0DMS8 whole entry): T1 sequence (whole entry)

[3] = target: T5, Adenosine receptor A1 (Homo sapiens) (UniProt P30542); experiment: Displacement of [3H]DPCPX from human adenosine A1 receptor expressed in CHO cells at 10 uM; type: cell-based
T5 sequence (whole entry): T2 sequence (P30542 whole entry)

[4] = target: T6, Adenosine receptor A2b (Homo sapiens) (UniProt P29275); experiment: Agonist activity at human recombinant adenosine A2B receptor expressed in CHO cells assessed as cAMP accumulation at 10 uM after 15 mins by liquid scintillation counting analysis; type: functional, cell-based
T6 sequence (whole entry): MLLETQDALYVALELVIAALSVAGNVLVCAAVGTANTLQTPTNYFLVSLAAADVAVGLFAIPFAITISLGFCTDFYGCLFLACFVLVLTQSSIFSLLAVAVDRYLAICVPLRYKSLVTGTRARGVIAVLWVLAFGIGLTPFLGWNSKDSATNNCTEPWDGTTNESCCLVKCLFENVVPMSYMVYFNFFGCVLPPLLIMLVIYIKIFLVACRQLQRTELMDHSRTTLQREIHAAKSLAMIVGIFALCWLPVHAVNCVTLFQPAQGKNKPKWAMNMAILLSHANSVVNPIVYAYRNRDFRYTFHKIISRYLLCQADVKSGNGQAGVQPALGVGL

[5] = target: T6, Adenosine receptor A2b (Homo sapiens); experiment: Antagonist activity at human recombinant adenosine A2B receptor expressed in CHO cells assessed as inhibition of NECA-induced cAMP accumulation measured as cAMP level at 10 uM incubated for 15 mins prior to NECA challenge measured after 30 mins by liquid scintillation counting analysis relative to control; type: functional, cell-based; design: scale not given: the % may be the effect or the level left
Adenosine receptor A2a [6] = target: T3, Adenosine receptor A2a; experiment: Displacement of [3H]NECA from human adenosine A2A receptor expressed in CHO cells; type: cell-based

Row | inhibition [1] [%] | Ki (Adenosine receptor A1) [nM] | inhibition (Adenosine receptor A2a [2]) [%] | Ki (Adenosine receptor A3) [nM] | inhibition [3] [%] | Activity [4] | Activity [5] [%] | Ki (Adenosine receptor A2a [6]) [nM] | Structure (SMILES)
1 | 22 | 4600 | 33 |  |  |  |  |  | CCOC(=O)N1Cc2nc(-c3ccccc3)nn2-c2ccccc21
2 |  |  | 7 | 545 | 1 |  |  |  | COc1ccc(-c2nc(NC(=O)Nc3ccccc3)n(-c3ccccc3)n2)cc1
3 |  | 134 | 33 | 6.5 |  | inactive | 68.6 |  | CCC(=O)N1Cc2nc(-c3ccccc3)nn2-c2cc(C)ccc21
4 |  | 1320 |  | 23.9 |  |  |  | 2400 | Cc1ccc2ncc3nc(-c4ccccc4)nn3c2c1
5 | 55 | 1360 | 52 |  |  |  |  |  | CCC(=O)N1Cc2nc(-c3ccccc3)nn2-c2ccccc21
6 | 47 |  | 7 |  | 2 |  |  |  | COc1ccc(-c2ncn(-c3cc(C)ccc3NC(=O)OCc3ccccc3)n2)cc1
7 | 50 |  | 43 |  | 25 |  |  |  | COc1ccc(-c2nc(NC(=O)c3ccccc3)n(-c3ccccc3)n2)cc1
8 |  |  | 4 | 231 | 45 |  |  |  | COc1ccc(-c2nc3n(n2)-c2cc(C)ccc2N(C(=O)OCc2ccccc2)C3)cc1
9 | 34 |  | 13 |  | 6 |  |  |  | CCOC(=O)Nc1ccc(C)cc1-n1cnc(-c2ccc(OC)cc2)n1
10 |  |  |  | 91.5 |  |  |  |  | c1ccc(-c2nc3cnc4ccccc4n3n2)cc1
11 |  |  |  | 166 |  |  |  |  | CCOC(=O)N1Cc2nc(-c3ccccc3)nn2-c2cc(Cl)ccc21
12 |  | 556 | 9 | 12.5 |  | inactive | 104 |  | CCOC(=O)N1Cc2nc(-c3ccccc3)nn2-c2cc(C)ccc21
13 |  | 565 | 56 | 171 |  |  |  |  | CCCOC(=O)N1Cc2nc(-c3ccccc3)nn2-c2cc(C)ccc21
14 |  | 1540 | 6 | 25.1 |  | inactive | 102 |  | CCC(=O)N1Cc2nc(-c3ccc(OC)cc3)nn2-c2cc(C)ccc21
15 | 45 |  | 1 |  | 44 |  |  |  | COc1ccc(-c2ncn(-c3cc(C)ccc3NC(=O)Cc3ccccc3)n2)cc1
16 |  | 86 | 2 | 39.4 |  |  |  |  | CCOC(=O)N1Cc2nc(-c3ccc(OC)cc3)nn2-c2cc(C)ccc21
17 | 35 |  | 16 |  |  |  |  |  | C#CCOC(=O)Nc1ccc(C)cc1-n1cnc(-c2ccc(OC)cc2)n1
18 |  |  | 0 | 54.8 | 39 | inactive | 89.5 |  | COc1ccc(-c2nc3n(n2)-c2cc(C)ccc2N(C(=O)Cc2ccccc2)C3)cc1
19 |  | 127 | 19 | 15.2 |  |  |  |  | Clc1ccc2ncc3nc(-c4ccccc4)nn3c2c1
20 |  | 2020 | 30 | 26.6 |  | inactive | 42.6 |  | COc1ccc(-c2nc3cnc4ccc(C)cc4n3n2)cc1
21 |  |  | 13 | 23.3 | 49 | inactive | 109 |  | C#CCOC(=O)N1Cc2nc(-c3ccc(OC)cc3)nn2-c2cc(C)ccc21
22 | 44 |  | 13 |  | 55 |  |  |  | COc1ccc(-c2nc(N(C(=O)c3ccccc3)C(=O)c3ccccc3)n(-c3ccccc3)n2)cc1
23 |  |  | 24 | 72 | 39 | inactive | 63.7 |  | CCC(=O)N1Cc2nc(-c3ccccc3)nn2-c2cc(Cl)ccc21
24 |  |  | 50 | 245 | 34 |  |  |  | COC(=O)N1Cc2nc(-c3ccccc3)nn2-c2ccccc21
25 | 19 |  | 4 |  | 26 |  |  |  | COc1ccc(-c2nc(N(C(C)=O)C(C)=O)n(-c3ccccc3)n2)cc1
26 |  | 1480 | 32 | 31.9 |  | inactive | 74.9 |  | COC(=O)N1Cc2nc(-c3ccccc3)nn2-c2cc(C)ccc21
